# Reference: publication PMC2727864 (Molecular cancer therapeutics, 2008)
# Several values for one entry are separate records, joined by “and”; a condition that tells them apart may be missing. Identical values can stand only once.
# Columns and labels:
# LogP = format: physicochemical
# Solubility = format: physicochemical
# phospho-Ser473 AKT [1] = test: Inhibition of phospho-Ser473 AKT by Western analysis in NIH3T3 cells; format: cell-based; details: Mus musculus, NIH3T3, read-out: AKT inhibition (IC50) NIH3T3
# phospho-Ser473 AKT [2] = test: Inhibition of phospho-Ser473 AKT by Western analysis in HT-29 cells; format: cell-based, human
# Toxicity studies in mice = format: in vivo, mouse
# phospho-(pan)-PKC = test: Phospho-; format: cell-based, human; details: HT-29, 2 hr, EGF stimulated, Western blot
# [3] = Metabolic stability, incubation with HT-29 cells in DMEM at 37°C; format: in vitro ADME; details: human
# [4] = system: HT-29 colon cancer xenografts; test: Anti-tumor activity, HT-29 colon cancer xenografts in scid mice; format: in vivo, mouse; details: orally daily for 5 days at 250 mg/kg
# tumor phospho-Ser473 AKT = test: Pharmacodynamic study, tumor phospho-Ser473 AKT in HT-29 xenografts; format: in vivo, mouse
# phospho-Ser241 PDK1 = test: Phospho-Ser241 PDK1 Western analysis in HT-29 cells; format: cell-based, human; details: HT-29, 2 hr, EGF stimulated, Western blot
# [5] = Pharmacokinetic study, plasma concentration in mice; format: in vivo, mouse
# [6] = five daily doses at 250 mg/kg ip
# [7] = 24 hr after a single dose 250 mg/kg
smiles,measurement,setting,value
"CC1=NN(C(=O)c2ccc(Cl)cc2)C(=O)C1N=Nc1ccc(S(=O)(=O)Nc2ncccn2)cc1 (centres unmarked) [Compound 1, 4-[1-(4-Chlorobenzoyl)-3-methyl-5-oxo-4,5-dihydro-1H-pyrazol-4-ylazo]-N-pyrimidin-2-yl-benzenesulfonamide]",logP,LogP,2.1
same,solubility,Solubility,very insoluble and 17.9 µM
same,IC50,phospho-Ser473 AKT [1],4 µM
same,"AKT phosphorylation, concentration response","phospho-Ser473 AKT [2]; HT-29, 2 hr, EGF stimulated, Western blot",decreased in a concentration-dependent manner
same,IC50,"phospho-Ser473 AKT [2]; Homo sapiens, HT-29, read-out: AKT inhibition (IC50) HT-29",13 µM
same,"body weight, blood lymphocyte, red blood cell and platelet count, AST, ALT",Toxicity studies in mice; [6],no change
same,neutropenia,Toxicity studies in mice; [6],moderate neutropenia
same,"toxicity, single dose","Toxicity studies in mice; single dose up to 250 mg/kg, ip, mice",no toxicity
same,phosphorylation of PKC,phospho-(pan)-PKC,decreased
same,half-life,[3],62 min
same,anti-tumor activity,[4],no activity
same,inhibition of tumor phospho-Ser473 AKT at 4 hr,tumor phospho-Ser473 AKT; 4 hr after a single dose 250 mg/kg,small inhibition
same,inhibition of tumor phospho-Ser473 AKT at 24 hr,tumor phospho-Ser473 AKT; [7],no inhibition
same,total AKT in tumor compared to actin loading control,tumor phospho-Ser473 AKT; [7],significant decrease
same,phosphorylation of PDK,phospho-Ser241 PDK1,decreased
same,"peak plasma concentration, ip",[5]; single dose 250 mg/kg ip,1.4 µM
same,"peak plasma concentration, oral",[5]; single dose 250 mg/kg oral,0.6 µM
